From patent publication EP1283052A1, “Pharmaceutical composition containing caspase-8 and /or caspase-9 useful for overcoming glucocorticoid- and cancer therapy-induced apoptosis of tumours” (Deutsches Krebsforschungszentrum Stiftung des öffentlichen …, priority 2001, dated 2003)

Tested on: caspase-8
Test: Fluorometric caspase-8 activity assay in CEM cells
Assay type: cell-based, human
Details: cisplatin 2 µg/ml alone, Fig. 2b
Procedure: • (a) Left: P5 an CEM cells were treated with cisplatin (1-5 µg/ml) in the absence or presence of DEX (1 µM) as indicated. Proteins were extracted and expression of CD95-L, TRAIL or TNF-α was detected by Western blot analysis. The size of the proteins in kDa is indicated. Right: HeLa and P5 were treated with CD95 agonistic antibody αAPO-1 (CD95, 1 µg/ml), recombinant TRAIL protein (TRAIL, 100 ng/ml) or recombinant TNF-α protein (TNF-α, 100 ng/ml) in the absence (white bars) or presence (black bars) of DEX (1 µM). 24 h later the percentage of apoptosis was determined by annexin-staining and FACS-analysis in untreated (CO) and stimulated cells at the time points indicated. • (b) P693 and CEM cells were treated with cisplatin (2 µg/ml) in the absence or presence of DEX as indicated. 24 and 48 h following treatment cells were lysed and caspase-8 activity was determined by a fluorescent caspase-8 assay and spectroscopy. • (c) P5 cells were stable transfected with empty vector (pcDNA3), or pcDNA3 vector encoding dominant negative FADD protein (FADD-DN). Proteins were extracted from both cell lines and expression of wildtype (WT) and FADD-DN (DN) was detected by Western blot. Left: Stable transfected P5 cells were treated with αAPO-1 (1 µg/ml) and 24 h later apoptosis was determined by staining with annexin/propidium iodide and flow-cytometry. […]

N.N.[Cl][Pt][Cl] [cisplatin]
activity of caspase-8: responded earlier at 24 h with increased activity at 48 h
